Entries after “also recorded” stand apart in the source; their conditions may differ. Read-outs that look alike come from different tables or passages of the source.
Tests used:
S. purpuratus embryos = experiment: Inhibition of first cleavage (cell division) of sea urchin embryos; format: cell-based, Strongylocentrotus purpuratus; conditions: for inhibition of the first cleavage of S. purpuratus embryos: FIGS. 1-4; for IC50: Strongylocentrotus purpuratus, read-out: concentration required for half maximal inhibition of first cleavage
Protocol: (§1) Male and female Strongylocentrotus purpuratus or S. franciscanus were injected with 0.5 M KCl through the soft tissue of the oral surface into the coleomic cavity and were then cultured in filtered seawater by conventional methods in the art. See e.g. O'Brien, E. T., et al. (1989) Mol. Pharmacol. 35:635-642; and Jacobs, J. S. and L. Wilson (1986) Drugs Pharm. Sci. 27:481-493, which are herein incorporated by reference. Gametes were released into filtered seawater. The eggs were stirred and passed 3 times through a […] Nitex mesh (Tetko, Inc., Elmsford, N.Y.) to remove the jelly coating and then allowed to settle. The seawater was aspirated off and then the eggs were centrifuged for 4 minutes at 310 rpm. The eggs were resuspended at 1% (v/v) in filtered seawater and set aside. Fresh sperm were collected from the aboral surface of a male urchin. About 1 drop of concentrated sperm was collected into a test tube and 1 ml of seawater was added. A 1 ml aliquot of the sperm solution was added per 100 ml of suspended eggs and immediately mixed.
After 1 minute post-fertilization, about 1 ml of embryos were placed on a microscope slide and checked for percent fertilization under a 10× magnification with a light microscope. A visible fertilization membrane differentiates fertilized egg from the unfertilized. The fertilized embryos were then incubated with a coumarin compound no later than 5 minutes after initial fertilization. The embryos were incubated for about 2 hours at about 15° C. to about 17° C., or until the control embryos completed first division and were in the 2-cell stage. The amount of division was calculated in each test sample by counting the number of divided versus undivided embryos in a small sample of about 40 μL using the light microscope.
(§2) Quantitation of division was performed by counting the number of divided and nondivided embryos after the control embryos had progressed to the end of first cleavage (about 120 minutes after fertilization). […]

[1] = system: Lytechinus pictus embryos; experiment: Inhibition of first cleavage of sea urchin embryos (dose-response); format: cell-based
S. franciscanus embryos = experiment: as above; format: cell-based
Protocol: as §1, with “Fresh sperm were collected from the aboral surface of a male urchin. About 1 drop of concentrated sperm was collected into a test tube and 1 ml of seawater was added. A 1 ml aliquot of the sperm solution was added per 100 ml of suspended eggs and immediately mixed.” left out
After 1 minute post-fertilization, about 1 ml of embryos were placed on a microscope slide and checked for percent fertilization under a 10× magnification with a light microscope. […] The amount of division was calculated in each test sample by counting the number of divided versus undivided embryos in a small sample of about 40 μL using the light microscope.
as §2

sea urchin embryos [2] = experiment: Spindle microtubule and chromosome organization in sea urchin embryos (immunofluorescence, modified Balczon and Schatten); format: cell-based, S. franciscanas; conditions: 50 μM dicoumarol
Protocol: Sea urchin embryos prepared according to Example 1 were used to study the effect of coumarin compounds on spindle microtubule organization and chromosome organization using immunofluorescence microscopy with specific antibodies for tubulin and DAPI was used to image the chromatin. Two different sea urchin embryo assay protocols were used.
Fixation and staining of embryos for immunofluorescence microscopy were performed according to a modified method of Balczon and Schatten ((1983) Cell Motility 3:213-226, which is herein incorporated by reference). […]. After extraction for 45 minutes, the embryos were fixed for 6 minutes with −10° C. methanol. After methanol fixation, the cells were rinsed for 5 minutes in PBS and then 25 μl of anti-α-tubulin monoclonal antibody (1:100) in PBS comprising 2% bovine serum albumin was added.
The embryos were incubated at 37° C. for about 60 to about 75 minutes and rinsed for 20 minutes in PBS after which 25 μl of a secondary staining solution comprising fluoroscein isothiocynate (FITC) conjugated to an anti-mouse IgG (1:100 in PBS) and DAPI (10 μg/ml) was added. The embryos were then incubated for 60 minutes at 37° C. and then rinsed for 20 minutes in PBS. Coverslips were mounted onto the slides with a solution of Vectashield® (Vector Laboratories, Inc., Burlingame, Calif.) and sealed with nail polish. […]

tubulin = tubulin (Bos taurus, UniProt P81947+Q6B856); experiment: Turbidity (light scattering) polymerization assay with electron microscopy; format: biochemical, bovine
tubulin, sequence (Q6B856 whole entry): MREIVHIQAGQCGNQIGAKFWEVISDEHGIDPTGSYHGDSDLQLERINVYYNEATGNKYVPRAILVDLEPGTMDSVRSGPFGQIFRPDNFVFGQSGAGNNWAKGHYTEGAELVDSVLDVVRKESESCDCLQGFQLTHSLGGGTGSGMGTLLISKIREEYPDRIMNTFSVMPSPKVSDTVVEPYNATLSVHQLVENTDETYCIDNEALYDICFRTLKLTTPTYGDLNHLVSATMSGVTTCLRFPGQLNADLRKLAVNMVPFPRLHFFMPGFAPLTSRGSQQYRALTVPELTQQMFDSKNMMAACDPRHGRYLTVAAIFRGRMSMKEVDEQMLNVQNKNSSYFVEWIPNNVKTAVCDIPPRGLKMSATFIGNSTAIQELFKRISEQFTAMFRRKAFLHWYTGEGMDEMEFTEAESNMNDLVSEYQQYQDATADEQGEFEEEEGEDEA
tubulin, sequence (P81947 whole entry): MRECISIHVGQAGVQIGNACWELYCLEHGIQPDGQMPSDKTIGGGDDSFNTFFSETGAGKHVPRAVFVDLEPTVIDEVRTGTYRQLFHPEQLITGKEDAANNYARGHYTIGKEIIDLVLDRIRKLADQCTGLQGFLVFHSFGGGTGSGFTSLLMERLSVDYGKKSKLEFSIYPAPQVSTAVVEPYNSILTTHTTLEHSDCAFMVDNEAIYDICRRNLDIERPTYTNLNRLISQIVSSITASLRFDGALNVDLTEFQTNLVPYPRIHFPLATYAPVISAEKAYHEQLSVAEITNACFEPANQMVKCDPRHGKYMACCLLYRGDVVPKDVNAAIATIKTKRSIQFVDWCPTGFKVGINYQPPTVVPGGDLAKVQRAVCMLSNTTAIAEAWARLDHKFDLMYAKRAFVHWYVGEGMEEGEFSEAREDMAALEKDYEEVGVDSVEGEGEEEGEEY
Protocol: To determine the rate and extent of the ability of a test compound to promote or inhibit microtubule polymerization (change in turbidity) a coumarin compound is added to a cuvet comprising about 1 mg/ml microtubule protein. The cuvet is incubated at 37° C. for 45 minutes in a spectrophotometer equipped with a heating unit and the absorbance is measured at about 340 nm. The change in absorbance is measured at intervals of 45 seconds over the 45-minute period and compared to the absorbance change induced by 1 mM GTP.
Specifically, 1.2 mg/ml of microtubule protein was mixed with different concentrations of dicoumarol in 100 mM PIPES, 1 mM MgCl2, and 1 mM EGTA (100 mM PEM buffer), and 1 mM guanosine 5′-triphosphate. Microtubule polymerization was monitored at 37° C. by light scattering at 350 nm using a Gilford Response Spectrophotometer.
10 μl aliquots were taken from spectrophotometrically followed reaction mixtures obtained during the course of the turbidity/light scattering assays at 10, 20, and 45 minutes and applied to 200-mesh carbon coated, Formavar-treated, copper grids (Ted Pella, Inc., Redding, Calif.). The sample was followed by several drops of 0.5% uranyl acetate and excess was drained off with filter paper. The grids were then examined with a Zeiss model 10CA electron microscope.

sea urchin embryos [3] = experiment: Cell cycle analysis: dicoumarol added at 10-minute intervals after fertilization; conditions: 50 μM dicoumarol added at 10-minute intervals; FIG. 5
Protocol: The ability of dicoumarol to block cells in mitosis, like a mitotic spindle poison, was examined. The first mitosis typically occurs between about 70 to about 90 minutes after fertilization and cytokinesis is usually complete at about 120 minutes, giving rise to two blastomeres.
Specifically, aliquots were designated T-10, T-20, . . . T-120.

SMILES: O=c1ccc2ccc(O)cc2o1 [7-hydroxycoumarin]
- inhibition of the first cleavage of S. purpuratus embryos (S. purpuratus embryos): inhibited the first cleavage
- IC50 (S. purpuratus embryos; S. purpuratus embryos, first cleavage): ~40 µM

SMILES: O=c1ccc2ccccc2o1 [coumarin]
- inhibition of the first cleavage of S. purpuratus embryos (S. purpuratus embryos): inhibited the first cleavage

SMILES: O=c1oc2ccccc2c(O)c1Cc1c(O)c2ccccc2oc1=O [dicoumarol]
- dose-response curve of cleavage inhibition [1]: identical to those obtained using S. purpuratus
- dose-response curve of cleavage inhibition (S. franciscanus embryos): identical to those obtained using S. purpuratus
- chromosome organization (sea urchin embryos [2]): disorganized chromosomes that had not congressed to the metaphase plate
- microtubules of mitotic spindles (sea urchin embryos [2]): bipolar, but appeared to be longer and located outside an intact nuclear envelope
- microtubule formation by electron microscopy (tubulin; 100 μM dicoumarol, polymerization prolonged to 45 minutes): microtubules were produced
- microtubule formation by electron microscopy (tubulin; axonemal seeded microtubules, 20 μM dicoumarol): revealed actual microtubule structures
- microtubule formation by electron microscopy (tubulin; polymerization for 10 and 20 minutes, no axonemes): No microtubules were formed
- rate and extent of polymerization of tubulin (turbidity) (tubulin; tubulin 12 μM, dicoumarol 0 μM-80 μM, FIG. 9): increased the rate and extent of tubulin polymerization; also recorded: concentration-dependent increase
- inhibition of first cleavage versus time of addition after fertilization (sea urchin embryos [3]): rapidly declined when dicoumarol was added 90 minutes after fertilization; also recorded: blocked if added after metaphase (90 minutes)
- inhibition of the first cleavage of S. purpuratus embryos (S. purpuratus embryos): inhibited the first cleavage
- concentration at which cell division was completely blocked (S. purpuratus embryos; S. purpuratus embryos): ≥ 20 µM
- IC50 (S. purpuratus embryos): ~4 µM
- lysis or morphological changes of treated embryos (S. purpuratus embryos; dicoumarol treated embryos): no lysis or morphological changes

SMILES: CC(=O)CC(c1ccccc1)c1c(O)c2ccccc2oc1=O (centres unmarked) [warfarin]
- inhibition of the first cleavage of S. purpuratus embryos (S. purpuratus embryos): inhibited the first cleavage
